Assay results published in patent US12139520B2 (priority 2020, dated 2024).
Bridge positions count the residues as written; N and C are the ends. Square brackets hold non-standard residues; d marks the D form. Peptide text beside a SMILES is read from it. Hyp = O=C(O)[C@@H]1C[C@@H](O)CN1; Cit = NC(=O)NCCC[C@H](N)C(=O)O

Experiments:
[1] = Physical stability of peptide analogues (Thioflavin T fibrillation); type: physicochemical; settings: maximum ThT signal normalized between hAMY maximum and buffer background; 40° C., shaking, four days; pH 7 per table title
How it was run: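 Maximum ThT emission at 480 nm, after LOESS smoothing, is given as percent of the span from buffer background to hAMY. Conditions: 50 mM buffer at pH 4 or 7, 4 μM dye, 40 °C, repeated shaking, readings every 10 min for four days.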

hAMY3 receptor = biological target: T1, hAMY3 receptor (Homo sapiens, UniProt O60896+P30988); assay: cAMP assay for in vitro receptor activation, hAMY3-R; type: cell-based; settings: cAMP assay, hAMY3 receptor; read-out: hAMY3R EC50
T1 sequence (P30988 25-474): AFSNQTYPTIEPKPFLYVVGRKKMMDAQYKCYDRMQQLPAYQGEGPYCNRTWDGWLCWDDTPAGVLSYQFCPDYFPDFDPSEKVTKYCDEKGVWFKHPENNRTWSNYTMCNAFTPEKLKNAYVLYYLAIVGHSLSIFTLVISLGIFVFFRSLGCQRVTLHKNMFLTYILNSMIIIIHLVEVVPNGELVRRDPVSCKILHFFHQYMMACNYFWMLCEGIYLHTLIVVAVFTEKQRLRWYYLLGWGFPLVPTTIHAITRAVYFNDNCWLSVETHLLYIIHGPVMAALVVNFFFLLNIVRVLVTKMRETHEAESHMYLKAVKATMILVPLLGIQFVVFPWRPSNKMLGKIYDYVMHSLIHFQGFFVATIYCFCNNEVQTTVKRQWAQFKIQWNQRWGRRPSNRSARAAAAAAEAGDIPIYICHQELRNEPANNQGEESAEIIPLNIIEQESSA
T1 sequence (O60896 24-148 partner): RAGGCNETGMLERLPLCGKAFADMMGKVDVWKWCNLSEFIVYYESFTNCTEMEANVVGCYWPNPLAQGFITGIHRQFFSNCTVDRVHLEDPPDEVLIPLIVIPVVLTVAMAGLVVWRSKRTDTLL
How it was run: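 Receptor activation was measured as cAMP accumulation in a monoclonal cell line stably overexpressing hAMY3. Stimulation with graded doses lasted 30 min at room temperature in the presence of 0.5 mM IBMX, with human amylin as positive control.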

| Max ThT signal (%) [1] [%] | EC50 (hAMY3 receptor) [nM] | SMILES |
| --- | --- | --- |
| 1.050 | 0.005 | CC(C)C[C@H](NC(=O)[C@H](CCCNC(N)=O)NC(=O)[C@H](CCC(N)=O)NC(=O)[C@@H](NC(=O)[C@@H](NC(=O)[C@@H]1CSSC[C@H](NC(=O)CN)C(=O)N[C@@H](CCCNC(=N)N)C(=O)N[C@@H](Cc2ccccc2)C(=O)NCC(=O)N[C@@H]([C@@H](C)O)C(=O)N1)[C@@H](C)O)C(C)C)C(=O)N[C@@H](C)C(=O)N[C@@H](Cc1c[nH]cn1)C(=O)N[C@@H](Cc1ccccc1)C(=O)N[C@@H](CC(C)C)C(=O)N[C@@H](Cc1ccc(O)cc1)C(=O)N[C@@H](CCC(N)=O)C(=O)N[C@@H](Cc1ccccc1)C(=O)N[C@H](C(=O)N[C@@H](CC(=O)O)C(=O)N[C@@H](CCCCN)C(=O)N[C@@H](CC(=O)O)C(=O)N[C@@H](CCCCN)C(=O)N[C@@H](CC(=O)O)C(=O)N[C@@H](CC(N)=O)C(=O)N[C@H](C(=O)N[C@@H](C)C(=O)N1CCC[C@H]1C(=O)N[C@@H](CCCNC(=N)N)C(=O)N[C@H](C(=O)N[C@@H](CC(N)=O)C(=O)N[C@H](C(=O)NCC(=O)N1CCC[C@H]1C(=O)N[C@@H](CCC(N)=O)C(=O)NCC(=O)N[C@@H](Cc1ccc(O)cc1)C(N)=O)C(C)C)[C@@H](C)O)C(C)C)[C@@H](C)O [compound 263] (H-GCRFGTCTVQ[Cit]LAHFLYQFTDKDKDNVAPRTNVGPQGY-NH2; disulfide 2-7; N-terminus assumed) |
| 24.300 | 0.054 | CC[C@H](C)[C@H](NC(=O)[C@H](CCC(N)=O)NC(=O)[C@H](Cc1c[nH]cn1)NC(=O)[C@H](C)NC(=O)[C@H](CC(C)C)NC(=O)[C@H](CCCNC(=N)N)NC(=O)[C@H](CCC(N)=O)NC(=O)[C@@H](NC(=O)[C@@H](NC(=O)[C@@H]1CSSC[C@H](NC(=O)CN)C(=O)N[C@@H](CCCNC(=N)N)C(=O)N[C@@H](Cc2ccccc2)C(=O)NCC(=O)N[C@@H]([C@@H](C)O)C(=O)N1)[C@@H](C)O)C(C)C)C(=O)N[C@@H](Cc1ccc(O)cc1)C(=O)N[C@@H](CCC(N)=O)C(=O)N[C@@H](Cc1ccccc1)C(=O)N[C@H](C(=O)N[C@@H](CC(=O)O)C(=O)N[C@@H](CCCCN)C(=O)N[C@@H](CC(=O)O)C(=O)N[C@@H](CCCCN)C(=O)N[C@@H](CC(=O)O)C(=O)N[C@@H](CC(N)=O)C(=O)N[C@H](C(=O)N[C@@H](C)C(=O)N1CCC[C@H]1C(=O)N[C@@H](CCCNC(=N)N)C(=O)N[C@H](C(=O)N[C@@H](CCCCN)C(=O)N[C@H](C(=O)N[C@@H](CO)C(=O)N1CCC[C@H]1C(=O)N[C@@H](CCC(N)=O)C(=O)NCC(=O)N[C@@H](Cc1ccc(O)cc1)C(N)=O)[C@@H](C)CC)[C@@H](C)O)C(C)C)[C@@H](C)O [compound 164] (H-GCRFGTCTVQRLAHQIYQFTDKDKDNVAPRTKISPQGY-NH2; disulfide 2-7) |
| 3.700 | 0.068 | CC[C@H](C)[C@H](NC(=O)[C@H](CCCCN)NC(=O)[C@@H](NC(=O)[C@H](CCCNC(=N)N)NC(=O)[C@@H]1CCCN1C(=O)[C@H](C)NC(=O)[C@@H](NC(=O)[C@H](CC(N)=O)NC(=O)[C@H](CC(=O)O)NC(=O)[C@H](CCCCN)NC(=O)[C@H](CC(=O)O)NC(=O)[C@H](CCCCN)NC(=O)[C@H](CC(=O)O)NC(=O)[C@@H](NC(=O)[C@H](Cc1ccccc1)NC(=O)[C@H](CCC(N)=O)NC(=O)[C@H](Cc1ccc(O)cc1)NC(=O)[C@@H](NC(=O)[C@H](CCC(N)=O)NC(=O)[C@H](Cc1c[nH]cn1)NC(=O)[C@H](C)NC(=O)[C@H](CC(C)C)NC(=O)[C@H](CCCNC(=N)N)NC(=O)[C@H](CCC(N)=O)NC(=O)[C@@H](NC(=O)[C@@H](NC(=O)[C@@H]1CSSC[C@H](NC(=O)CN)C(=O)N[C@@H](CCCNC(=N)N)C(=O)N[C@@H](Cc2ccccc2)C(=O)NCC(=O)N[C@@H]([C@@H](C)O)C(=O)N1)[C@@H](C)O)C(C)C)[C@@H](C)CC)[C@@H](C)O)C(C)C)[C@@H](C)O)C(=O)NCC(=O)N1CCC[C@H]1C(=O)N[C@@H](CCC(N)=O)C(=O)NCC(=O)N[C@@H](Cc1ccc(O)cc1)C(N)=O [compound 391] (H-GCRFGTCTVQRLAHQIYQFTDKDKDNVAPRTKIGPQGY-NH2; disulfide 2-7; N-terminus assumed) |
| 6.300 | 0.048 | CC[C@H](C)[C@H](NC(=O)[C@H](CCC(N)=O)NC(=O)[C@H](Cc1c[nH]cn1)NC(=O)[C@H](C)NC(=O)[C@H](CC(C)C)NC(=O)[C@H](CCCNC(=N)N)NC(=O)[C@H](CCC(N)=O)NC(=O)[C@@H](NC(=O)[C@@H](NC(=O)[C@@H]1CSSC[C@H](NC(=O)CN)C(=O)N[C@@H](CCCNC(=N)N)C(=O)N[C@@H](Cc2ccccc2)C(=O)NCC(=O)N[C@@H]([C@@H](C)O)C(=O)N1)[C@@H](C)O)C(C)C)C(=O)N[C@@H](Cc1ccc(O)cc1)C(=O)N[C@@H](CCC(N)=O)C(=O)N[C@@H](Cc1ccccc1)C(=O)N[C@H](C(=O)N[C@@H](CC(=O)O)C(=O)N[C@@H](CCCCN)C(=O)N[C@@H](CC(=O)O)C(=O)N[C@@H](CCCCN)C(=O)N[C@@H](CC(=O)O)C(=O)N[C@@H](CC(N)=O)C(=O)N[C@H](C(=O)N[C@@H](C)C(=O)N1CCC[C@H]1C(=O)N[C@@H](CCCNC(=N)N)C(=O)N[C@@H](CO)C(=O)N[C@@H](CC(N)=O)C(=O)N[C@H](C(=O)N[C@@H](CO)C(=O)N1CCC[C@H]1C(=O)N[C@@H](CCC(N)=O)C(=O)NCC(=O)N1C[C@H](O)C[C@H]1C(N)=O)[C@@H](C)CC)C(C)C)[C@@H](C)O [compound 158] (H-GCRFGTCTVQRLAHQIYQFTDKDKDNVAPRSNISPQG[Hyp]-NH2; disulfide 2-7; N-terminus assumed) |
| 18.400 | 0.014 | CC[C@H](C)[C@H](NC(=O)[C@H](CCC(N)=O)NC(=O)[C@H](Cc1c[nH]cn1)NC(=O)[C@H](C)NC(=O)[C@H](CC(C)C)NC(=O)[C@H](Cc1c[nH]c2ccccc12)NC(=O)[C@H](CCC(N)=O)NC(=O)[C@@H](NC(=O)[C@@H](NC(=O)[C@@H]1CSSC[C@H](NC(=O)CN)C(=O)N[C@@H](CCCNC(=N)N)C(=O)N[C@@H](Cc2ccccc2)C(=O)NCC(=O)N[C@@H]([C@@H](C)O)C(=O)N1)[C@@H](C)O)C(C)C)C(=O)N[C@@H](Cc1ccc(O)cc1)C(=O)N[C@@H](CCC(N)=O)C(=O)N[C@@H](Cc1ccccc1)C(=O)N[C@H](C(=O)N[C@@H](CC(=O)O)C(=O)N[C@@H](CCCCN)C(=O)N[C@@H](CC(=O)O)C(=O)N[C@@H](CCCCN)C(=O)N[C@@H](CC(=O)O)C(=O)N[C@@H](CC(N)=O)C(=O)N[C@H](C(=O)N[C@@H](C)C(=O)N1CCC[C@H]1C(=O)N[C@@H](CCCNC(=N)N)C(=O)N[C@H](C(=O)N[C@@H](CCCCN)C(=O)N[C@H](C(=O)NCC(=O)N1CCC[C@H]1C(=O)N[C@@H](CCC(N)=O)C(=O)NCC(=O)N1C[C@H](O)C[C@H]1C(N)=O)C(C)C)[C@@H](C)O)C(C)C)[C@@H](C)O [compound 322] (H-GCRFGTCTVQWLAHQIYQFTDKDKDNVAPRTKVGPQG[Hyp]-NH2; disulfide 2-7; N-terminus assumed) |
| 3.300 | 0.013 | CC[C@H](C)[C@H](NC(=O)[C@H](CCC(N)=O)NC(=O)[C@H](Cc1c[nH]cn1)NC(=O)[C@H](C)NC(=O)[C@H](CC(C)C)NC(=O)[C@H](CCCNC(=N)N)NC(=O)[C@H](CCC(N)=O)NC(=O)[C@@H](NC(=O)[C@@H](NC(=O)[C@@H]1CSSC[C@H](NC(=O)CN)C(=O)N[C@@H](CCCNC(=N)N)C(=O)N[C@@H](Cc2ccccc2)C(=O)NCC(=O)N[C@@H]([C@@H](C)O)C(=O)N1)[C@@H](C)O)C(C)C)C(=O)N[C@@H](Cc1ccc(O)cc1)C(=O)N[C@@H](CCC(N)=O)C(=O)N[C@@H](Cc1ccccc1)C(=O)N[C@H](C(=O)N[C@@H](CC(=O)O)C(=O)N[C@@H](CCCCN)C(=O)N[C@@H](CC(=O)O)C(=O)N[C@@H](CCCCN)C(=O)N[C@@H](CC(=O)O)C(=O)N[C@@H](CC(N)=O)C(=O)N[C@H](C(=O)N[C@@H](C)C(=O)N1CCC[C@H]1C(=O)N[C@@H](CCCNC(=N)N)C(=O)N[C@H](C(=O)N[C@@H](CC(N)=O)C(=O)N[C@H](C(=O)N[C@@H](CO)C(=O)N1CCC[C@H]1C(=O)N[C@@H](CC(N)=O)C(=O)NCC(=O)N[C@@H](Cc1ccc(O)cc1)C(N)=O)[C@@H](C)CC)[C@@H](C)O)C(C)C)[C@@H](C)O [compound 366] (H-GCRFGTCTVQRLAHQIYQFTDKDKDNVAPRTNISPNGY-NH2; disulfide 2-7; N-terminus assumed) |
